Test results as given in PMC4393269, “Carvacrol Codrugs: A New Approach in the Antimicrobial Plan” (PLoS ONE, 2015).
Read-outs that look alike come from different tables or passages of the source.

Legend:
[1] = tested on: S. aureus ATCC 29213; assay: Transmission electron microscopy; type: cell-based; conditions: 12.5 mg/mL for 3 h
Text: (§1) For transmission electron microscopy, microrganisms were fixed with 2.5% glutaraldehyde in 0.1 M cacodylate buffer, postfixed with 1% OsO4, dehydrated in graded ethanol and embedded in Epon 812. Ultrathin sections (60 to 80 nm) were then mounted on 200-mesh copper grids and stained with uranyl acetate and lead citrate for ultrastructural observation. Sections were photographed using a Philips 268 D electron microscope (FEI).

[2] = tested on: C. albicans ATCC 10231; assay: Transmission electron microscopy; type: cell-based; conditions: 12.5 mg/mL for 3 h
Text: as §1

[3] = tested on: E. coli ATCC 8739; assay: Transmission electron microscopy; type: cell-based; conditions: 12.5 mg/mL for 3 h
Text: as §1

[4] = tested on: pepsin; assay: Drug stability in simulated gastric fluid with pepsin; type: in vitro ADME; conditions: for kobs: 37°C
Experimental: (§2) The HPLC system consisted of a Waters 600 HPLC pump (Waters Corporation, Milford, MA, USA), equipped with a Waters 2996 photodiode array detector. The column was a Kinetex RP-C8 column (3.0 x 150 mm, 5 μm). The mobile phase consisted of 0.1% TFA in acetonitrile/0.1% TFA in 95% H2O and 5% acetonitrile 50:50, under isocratic conditions at a flow rate of 1 mL/min. The UV detector was set at a length of 220 nm.
(§3) To assess enzymatic stability, hydrochloric buffer with pepsin (10 or 40 mg/mL) and phosphate buffer with pancreatin (10 or 40 mg/mL) were used. Buffer solution (250 μL) was preincubated at 37°C and 50 μL of drug stock solution (50 μM in ethanol and FASSIF 1:9) were added and shaken at 37°C and 650 rpm. Samples of 100 μL were withdrawn at various times and 100 µL of ice-cold acetonitrile containing 0.5 v/v% formic acid were added to stop enzymatic activity. Samples were vortexed and centrifuged at 2°C and 10000 rpm for 10 min. The drug content in the supernatant was analyzed by HPLC.

[5] = as above; type: in vitro ADME; conditions: 37°C, read-out: t½ (converted)
Experimental: as §2, §3

[6] = PAMPA-GI permeability; type: in vitro ADME; conditions: for Papp at 16 h: 16 h of incubation (table title), 2% Tween 80, 10% MeOH, read-out: PAMPA-GI permeability P e
Experimental: Parallel Artificial Membrane Permeability Assay (PAMPA) was used to measure the permeability coefficient (P e) of codrug 4 through the artificial membrane to predict oral absorption. The carvacrol codrug 4 permeability was determined using PAMPA-GI protocols already developed. Briefly, donor and acceptor plates were assembled to form a “sandwich” and incubated at room temperature for 18 h.
P e can be calculated from the equation below: Pe={VD⋅VA/(VD+VA)⋅A⋅t⋅ln(1−[drug]acceptor/[drug]equilibrium)} (1) where P e is the effective permeability coefficient (cm × s^-1), V D is the volume of the donor compartment (0.15 cm^3) and V A is the volume of the acceptor compartment (0.30 cm^3), A is the effective filter area (0.28 cm^2), t is the incubation time for the assay (s), [drug] acceptor is the concentration of the compound in the acceptor compartment at assay completion, and [drug] equilibrium is the concentration of the compound at theoretical equilibrium.

[7] = Kinetics of chemical hydrolysis in buffers; type: physicochemical; conditions: for half-life at 9.1 µM: read-out: t½ (converted)
Experimental: as §2
[…] Reactions were initiated by adding 1 mL of 10^-4 M stock solution (in acetonitrile) of the compound to 10 mL of the appropriate aqueous buffer solution, containing 20% acetonitrile. At appropriate time intervals, samples of 20 μL were withdrawn and analyzed by HPLC. Pseudo-first-order rate constants (kobs) for the hydrolysis of the compounds were then calculated from the slopes of the linear plots of log (% residual compound) against time. The experiments were run in triplicate and the mean values of the rate constants were calculated.

[8] = tested on: human red blood cells (h-RBC); assay: Hemolytic activity; type: cell-based
Experimental: Experimental protocols to study hemolysis on human red cells were approved by Ethics Committee of the University “G. d’Annunzio” Chieti-Pescara. Human red cells were from two volunteers, who signed the informed consent for this study.
Hemolytic activity of carvacrol codrugs 1–10 was tested against human red blood cells (h-RBC). Fresh human blood, collected with EDTA, was centrifuged at 3000 rpm for 5 min then washed three times with PBS pH 7.3. Red blood cells were diluted to 4% in PBS and incubated with different codrugs concentrations ranging from 25 to 0.05 mg/mL. After 1 h of incubation at 37°C, the suspensions were sedimented by centrifugation and the release of hemoglobin was determined by absorbance measurement at 405 nm and compared with a 0% hemolysis control (PBS) and a 100% hemolysis control (PBS with 1% v/v Triton X-100). The percentage of hemolysis was calculated using the following equation: Hemolysis (%) = [(OD405sample - OD4050% lysis control)/(OD405100% lysis control - OD4050% lysis contro)] X 100

[9] = Lipophilicity LogP (experimental); type: physicochemical; conditions: mean of three experiments (SD)
Text: Table 3 Physicochemical properties of carvacrol codrug 4. | column: Lipophilicity / LogP ^a

For `C=CCSC[C@H](NC(C)=O)C(=O)Oc1cc(C(C)C)ccc1C` [codrug 4, N-Ac-Cys(Allyl)-CAR], which “cell morphology by TEM” value [1] is on record?
Its value is “induced abnormal septum formation with irregular features”.

And the “cell morphology by TEM” value [2]?
The value was “disintegration of the membranes”.

And the “cell morphology by TEM” value [3]?
The value was “alteration of outer membrane”.

And the kobs ([4]; SGF pH 1.3, pepsin 10 mg/mL)?
Its kobs is 0.009 (± 0.001) h^-1.

And the kobs ([4]; SGF pH 1.3, pepsin 40 mg/mL)?
Its kobs is 0.119 (± 0.003) h^-1.

And the “stability at pH 1.3 respect to pH 7.4” value ([4]; in the presence of pepsin and pancreatin (10 mg/mL))?
The value was 13 fold.

What about the half-life at 8.3 µM ([5]; simulated gastric fluid with pepsin 10 mg/mL, pH 1.3, SGF pH 1.3, pepsin 10 mg/mL) of the same compound?
The half-life at 8.3 µM was > 4440 min.

And the half-life at 8.3 µM ([5]; simulated gastric fluid with pepsin 40 mg/mL, pH 1.3, SGF pH 1.3, pepsin 40 mg/mL)?
Its half-life at 8.3 µM is 347 min.

And the Papp at 18 h ([6]; at each value of pH (5.0, 6.5, 7.4), after 18 h of incubation, read-out: PAMPA-GI permeability P e (bound))?
The Papp at 18 h was > 1 ×10⁻⁶ cm/s.

And the Papp at 16 h ([6]; pH 5.0 in donor and acceptor)?
Its Papp at 16 h is 8.6 ×10⁻⁶ cm/s.

And the Papp at 16 h ([6]; pH 6.5 in donor and acceptor)?
Its Papp at 16 h is 17 ×10⁻⁶ cm/s.

What about the Papp at 16 h ([6]; pH 7.4 in donor and acceptor) of the same compound?
Its Papp at 16 h is 2.34 ×10⁻⁶ cm/s.

What about the half-life at 9.1 µM ([7]; aqueous buffer pH 5.0, pH 5.0, 37°C) of the same compound?
Its half-life at 9.1 µM is 2.59 days.

What about the half-life at 9.1 µM ([7]; hydrochloric acid buffer pH 1.3 (non-enzymatic SGF), pH 1.3, 37°C) of the same compound?
Its half-life at 9.1 µM is 3.14 days.

What about the kobs ([7]; pH 1.3, 37°C) of the same compound?
Its kobs is 0.009 (± 0.001) h^-1.

What about the kobs ([7]; pH 7.4, 37°C) of the same compound?
The kobs was 0.030 (± 0.001) h^-1.

What about the half-life at 9.1 µM ([7]; phosphate buffer pH 7.4 (non-enzymatic SIF), pH 7.4, 37°C) of the same compound?
The half-life at 9.1 µM was 0.954 days.

And the “concentration at which hemolytic activity is over 50%” value ([8]; 4% h-RBC, 1 h at 37°C)?
The value was 5 mg/mL.

And the “hemolysis / toxicity at MIC values (in words)” value ([8]; h-RBC, at MIC values)?
The value was “not toxic at the MIC values”.

What about the logP [9] of the same compound?
Its logP is 1.21.
